Structures are written as SMILES.

The record followed here is patent publication US20040122086A1, “Method for the production of anhydrous, pharmaceutical formulations of xanthogenates” (priority 2001, published 2004).

Data set [1] relates to herpes simplex virus 1 (HSV 1), strain Angelotti. The experiment in a line: Antiviral action of D609 against HSV 1 (cytopathogenic effect) in monkey renal cells. It is filed as cell-based. Conditions: for D609 concentration necessary to reduce the number of the infected cultures by 50%: monkey renal cells (Rita line). As to the method:
Monkey renal cells (Rita line) were infected in Linbro plates with 20 plaque-forming units of herpes simplex virus 1 (HSV 1), strain Angelotti. After 15 min, fresh cell culture medium (adjusted to pH 6.8 by reduction of the amount of sodium bicarbonate to 0.85 g/l and addition of 1 ml of 1 N HCl) which contained either 0, 5, 10, 15, 20, 25 or 30 μg/ml of D609 was added. All batches were carried out in quadruplicate. At the same time, cultures containing D609 and a fourfold concentration of cholesterol or containing cholesterol alone were treated. After 5 days, the monkey renal cells were lyzed in all untreated cultures by means of the cytopathogenic effect (cpe). After a further three days, the number of the cultures with cpe was determined for each D609 concentration. As can be inferred from FIG. 2, the number of cultures with cpe decreases with increasing D609 dose. The antiviral action of D609 was increased by cholesterol. While without cholesterol 25 μg/ml of D609 were necessary in order to reduce the number of the infected cultures by 50%, in the presence of cholesterol only 10 μg/ml of D609 were necessary. Cholesterol alone had no effect on the replication of HSV. Up to the highest concentration (120 μg/ml), all cultures were lyzed by HSV 1.

The test system of data set [2] is herpes simplex virus 1. The experiment in a line: Antiviral use of D609 ointment in animal experiments (background). It is filed as in vivo.
Data set [3] has as its system hairless mice (strain Swiss CD3, Nu/Nu). Conditions: mouse, in vivo.
Protocol: (§1) D609 was mixed in a mortar together with the same proportion by weight of potassium salt of decanoic acid and two parts by weight of phosphatidylcholine or two or four parts by weight of cholesterol. After this, sufficient highly liquid paraffin oil and petroleum jelly (1 part by weight of paraffin oil, 4 parts by weight of petroleum jelly) were added such that in each case a concentration of 1.25; 2.5; 5.0; or 10% of D609 was achieved. In the same manner, D609-containing ointments without phosphatidylcholine or cholesterol were prepared.
(§2) 100 mg of ointment were applied twice in the neck region to 10 hairless mice each (strain Swiss CD3, Nu/Nu) at an interval of four hours. 12 hours after the last application, the degree of irritation was read off. The irritation was assessed according to the following scheme: slight erythema 0.5; severe erythema 1.0; ulceration 2.0.
Data set [4] has the same test system. Briefly: Irritating action of D609 ointments on hairless mice. As to conditions: for number of animals with slight erythema: 10 mice per group.
Protocol: as §1, §2
Data set [5] is described as follows: Stability of D609 in aqueous solution (pH increase as measure of decomposition). As to conditions: 1 mg/ml D609 in distilled water, 37° C. It is filed as physicochemical. As to the method:
D609 was dissolved in distilled water in a concentration of 1 mg/ml. 100 ml of this solution in each case were filled into a 200 ml Erlenmeyer flask. One of two solutions was treated with 1 g of cholesterol. Both solutions were incubated at 37° C. The pH of the solutions was determined at regular intervals. D609 decomposes in the presence of water to give tricyclodecanol, carbon disulfide and KOH. The pH of the solution increases with the formation of KOH. The increase in the pH is therefore a measure of the decomposition of D609.

The nature of data set [6]: Tolerability of D609 / xanthates in ointments (background). Conditions: ointment.
Where [7] appears, read: ointments with 4 parts by weight of cholesterol, 10% D609.
Setting [8] is: ointments with two parts by weight of cholesterol (plus same weight of potassium salt of decanoic acid).

Take `CC(C)CCC[C@@H](C)[C@H]1CC[C@H]2[C@@H]3CC=C4C[C@@H](O)CC[C@]4(C)[C@H]3CC[C@]12C` [Cholesterol, cholesterol]: in data set [1] (cholesterol alone, up to the highest concentration (120 μg/ml), all cultures were lyzed), the “effect on the replication of HSV” value is “no effect”.

For `S=C(S)OC1CC2CC1C1CCCC21` (centres unmarked) [D609, tricyclodecan-9-yl xanthate], the “concentration needed in an ointment for effective antiviral use” value in data set [2] is recorded as “at least 2.5%”. Besides, the tolerability entry in data set [3] was “marked improvement in the tolerability”. Further, the degree of irritation result in data set [4] (2.5% D609 in pure petroleum jelly ointment without phosphatidylcholine or cholesterol, 100 mg applied twice, read 12 hours after last application) is reported as “marked irritation”; in data set [4] (5% D609 in pure petroleum jelly ointment without phosphatidylcholine or cholesterol, 100 mg applied twice, read 12 hours after last application), “very strongly pronounced”; in data set [4] (setting [7]), “almost free of irritant action”; in data set [4] (setting [8]), “marked decrease in the symptoms”. In addition, the “number of animals with slight erythema” value in data set [4] (ointments containing four parts by weight of phosphatidylcholine, 5% D609) was “one”; in data set [4] (ointments containing four parts by weight of phosphatidylcholine, 10% D609), “five”; in data set [4] (setting [7]) it was “one”. In addition, the “D609 concentration at which a significant irritation occurred” value in data set [4] (setting [8]) is recorded as 10%. In addition, the “pH increase and thus decomposition” value in data set [5] (100 ml treated with 1 g of cholesterol, after 72 hours) was “only a small pH increase”. Also, the “time within which marked decomposition is seen” value in data set [5] (without cholesterol) is at most 6 h. Also, in data set [6], the “maximum tolerable concentration in ointments” value was 1%. Moreover, the “D609 concentration necessary to reduce the number of the infected cultures by 50%” value in data set [1] (in the presence of a fourfold concentration of cholesterol, pH 6.8) turned out to be 10 µg/mL; in data set [1] (without cholesterol, pH 6.8, cpe read after 8 days) it was 25 µg/mL. Besides, the “factor by which antiviral action of D609 is improved by cholesterol” value in data set [1] (pH 6.8, with versus without cholesterol) is above 2.5.
